Laboratory results from patent US9884842B2, “Combretastatin analogs” (The Board of Trustees of the University of Arkansas, priority 2013, dated 2018).
Like-named read-outs stand apart in the source and are kept apart here.

Key:
NCI-H23 = experiment: NCI growth inhibition and cytotoxicity screen, Lung Cancer panel; conditions: Homo sapiens; for GI50: NCI-H23; for CC50: NCI-H23, read-out: LC50
SK-MEL-5 = experiment: NCI growth inhibition and cytotoxicity screen, Melanoma panel; conditions: Homo sapiens; for GI50: SK-MEL-5; for CC50: SK-MEL-5, read-out: LC50
HCT-116 = experiment: NCI growth inhibition and cytotoxicity screen, Colon Cancer panel; conditions: Homo sapiens; for GI50: HCT-116; for CC50: HCT-116, read-out: LC50
MDA-MB-468 = experiment: cells; conditions: Homo sapiens; for GI50: MDA-MB-468; for CC50: MDA-MB-468, read-out: LC50
ACHN = experiment: NCI growth inhibition and cytotoxicity screen, Renal Cancer panel; conditions: Homo sapiens; for CC50: read-out: LC50
HS 578T = experiment: NCI growth inhibition and cytotoxicity screen, Breast Cancer panel; conditions: Homo sapiens; for CC50: read-out: LC50
MCF7 = experiment: as above; conditions: Homo sapiens; for GI50: MCF7; for CC50: MCF7, read-out: LC50
BT-549 = experiment: as above; conditions: Homo sapiens; for GI50: BT-549; for CC50: BT-549, read-out: LC50
KM12 = experiment: NCI growth inhibition and cytotoxicity screen, Colon Cancer panel; conditions: Homo sapiens; for GI50: KM12; for CC50: KM12, read-out: LC50
IGROV1 = experiment: NCI growth inhibition and cytotoxicity screen, Ovarian Cancer panel; conditions: Homo sapiens; for GI50: IGROV-1; for CC50: IGROV-1, read-out: LC50
COLO 205 = experiment: NCI growth inhibition and cytotoxicity screen, Colon Cancer panel; conditions: Homo sapiens; for GI50: COLO 205; for CC50: COLO 205, read-out: LC50
SK-OV-3 = experiment: NCI growth inhibition and cytotoxicity screen, Ovarian Cancer panel; conditions: Homo sapiens; for GI50: SK-OV-3; for CC50: SK-OV-3, read-out: LC50
NCI/ADR-RES = experiment: as above; conditions: Homo sapiens; for CC50: read-out: LC50
SF-268 = experiment: NCI growth inhibition and cytotoxicity screen, CNS Cancer panel; conditions: Homo sapiens; for GI50: SF-268; for CC50: SF-268, read-out: LC50
[1] = tested on: full panel of 60 different cancer cell lines; experiment: NCI five dose screen, full panel summary; assay type: cell-based, human; conditions: for GI50: Homo sapiens; for potent growth inhibition on % of the cancer cell lines: share of the cancer cell lines potently inhibited
RXF 393 = experiment: NCI growth inhibition and cytotoxicity screen, Renal Cancer panel; conditions: Homo sapiens; for GI50: RXF 393; for CC50: RXF 393, read-out: LC50
PC-3 = experiment: NCI growth inhibition and cytotoxicity screen, Prostate Cancer panel; conditions: Homo sapiens; for GI50: PC-3; for CC50: PC-3, read-out: LC50
OVCAR-3 = experiment: cells; conditions: Homo sapiens; for GI50: OVCAR-3; for CC50: OVCAR-3, read-out: LC50
T-47D = experiment: NCI growth inhibition and cytotoxicity screen, Breast Cancer panel; conditions: Homo sapiens, T47D; for CC50: read-out: LC50
NCI-H522 = experiment: NCI growth inhibition and cytotoxicity screen, Lung Cancer panel; assay type: cell-based; conditions: Homo sapiens, Table 2, cell line NCI-H522 (Lung Cancer); for CC50: read-out: LC50 (the source's name)
HCC-2998 = experiment: NCI growth inhibition and cytotoxicity screen, Colon Cancer panel; conditions: Homo sapiens; for GI50: HCC 2998; for CC50: HCC 2998, read-out: LC50
UACC-257 = experiment: NCI growth inhibition and cytotoxicity screen, Melanoma panel; conditions: Homo sapiens; for CC50: UACC-257, read-out: LC50
CCRF-CEM = experiment: NCI growth inhibition and cytotoxicity screen, Leukemia panel; conditions: Homo sapiens; for CC50: read-out: LC50
MDA-MB-435 = experiment: NCI growth inhibition and cytotoxicity screen, Melanoma panel; conditions: Homo sapiens; for GI50: MDA-MB-435; for CC50: MDA-MB-435, read-out: LC50
MOLT-4 = experiment: NCI growth inhibition and cytotoxicity screen, Leukemia panel; conditions: Homo sapiens; for GI50: MOLT-4; for CC50: MOLT-4, read-out: LC50
DU-145 = experiment: NCI growth inhibition and cytotoxicity screen, Prostate Cancer panel; conditions: Homo sapiens; for GI50: DU-145; for CC50: DU-145, read-out: LC50
SNB-19 = experiment: NCI growth inhibition and cytotoxicity screen, CNS Cancer panel; conditions: Homo sapiens; for GI50: SNB-19; for CC50: SNB-19, read-out: LC50
NCI-H322M = experiment: NCI growth inhibition and cytotoxicity screen, Lung Cancer panel; conditions: Homo sapiens; for CC50: read-out: LC50
[2] = range over the potently inhibited cell lines, read-out: GI50 ranging (potently inhibited cancer cell lines)
[3] = read-out: average GI50 value on all the cancer cell lines

`COc1cc(OC)cc(/C(C#N)=C/c2cnc3ccccc3c2)c1` [PNR-4-85, (Z)-3-(quinolin-3-yl)-2-(3,5-dimethoxyphenyl)acrylonitrile] was tested, and the GI50 (NCI-H23) was 747 nM, the CC50 (NCI-H23) was over 100000 nM and the GI50 (SK-MEL-5) was 249 nM. It also gave a CC50 (SK-MEL-5) of over 100000 nM, a GI50 (HCT-116) of 420 nM and a CC50 (HCT-116) of over 100000 nM. For the same compound, the GI50 (MDA-MB-468) was 217 nM, the CC50 (MDA-MB-468) was over 100000 nM and the GI50 (ACHN) was 1190 nM. For the same compound, the CC50 (ACHN) was over 100000 nM, the GI50 (HS 578T) was 715 nM and the CC50 (HS 578T) was over 100000 nM. For the same compound, the GI50 (MCF7) was 333 nM, the CC50 (MCF7) was over 100000 nM and the GI50 (BT-549) was 388 nM. The CC50 (BT-549) was over 100000 nM, the GI50 (KM12) was 409 nM and the CC50 (KM12) was over 100000 nM. The GI50 (IGROV1) was 3500 nM, the CC50 (IGROV1) was over 100000 nM and the GI50 (COLO 205) was 398 nM. It also gave a CC50 (COLO 205) of 89900 nM, a GI50 (SK-OV-3) of 576 nM and a CC50 (SK-OV-3) of over 100000 nM. It also gave a GI50 (NCI/ADR-RES) of 224 nM, a CC50 (NCI/ADR-RES) of over 100000 nM and a GI50 (SF-268) of 654 nM. The CC50 (SF-268) was over 100000 nM, the GI50 [1, 2] was 53 to 903 nM and the GI50 [1, 3] was 2210 nM. For the same compound, the “potent growth inhibition on % of the cancer cell lines” value [1] was 81%, the GI50 (RXF 393) was 297 nM and the CC50 (RXF 393) was over 100000 nM. For the same compound, the GI50 (PC-3) was 506 nM, the CC50 (PC-3) was over 100000 nM and the GI50 (OVCAR-3) was 279 nM. For the same compound, the CC50 (OVCAR-3) was over 100000 nM, the GI50 (T-47D) was 628 nM and the CC50 (T-47D) was over 100000 nM. For the same compound, the GI50 (NCI-H522) was 69 nM, the CC50 (NCI-H522) was over 100000 nM and the GI50 (HCC-2998) was 1450 nM. The CC50 (HCC-2998) was over 100000 nM, the GI50 (UACC-257; UACC-257) was 12800 nM and the CC50 (UACC-257) was over 100000 nM. The GI50 (CCRF-CEM) was 332 nM, the CC50 (CCRF-CEM) was over 100000 nM and the GI50 (MDA-MB-435) was 53 nM. The CC50 (MDA-MB-435) was over 100000 nM, the GI50 (MOLT-4) was 378 nM and the CC50 (MOLT-4) was over 100000 nM. The GI50 (DU-145) was 505 nM, the CC50 (DU-145) was over 100000 nM and the GI50 (SNB-19) was 614 nM. For the same compound, the CC50 (SNB-19) was over 100000 nM, the GI50 (NCI-H322M) was 903 nM and the CC50 (NCI-H322M) was over 100000 nM.

With `COc1cc(OC)cc(/C(C#N)=C/c2ccc3ccccc3n2)c1` [PNR-4-84, (Z)-2-(3,5-dimethoxyphenyl)-3-(quinolin-2-yl)acrylonitrile] the GI50 (NCI-H23) was 983 nM, the CC50 (NCI-H23) was over 100000 nM and the GI50 (SK-MEL-5) was 406 nM. The CC50 (SK-MEL-5) was over 100000 nM, the GI50 (HCT-116) was 416 nM and the CC50 (HCT-116) was 47300 nM. It also gave a GI50 (MDA-MB-468) of 1500 nM, a CC50 (MDA-MB-468) of over 100000 nM and a GI50 (ACHN) of 773 nM. It also gave a CC50 (ACHN) of over 100000 nM, a GI50 (HS 578T) of 700 nM and a CC50 (HS 578T) of over 100000 nM. The GI50 (MCF7) was 537 nM, the CC50 (MCF7) was over 100000 nM and the GI50 (BT-549) was 342 nM. For the same compound, the CC50 (BT-549) was 80600 nM, the GI50 (KM12) was 425 nM and the CC50 (KM12) was over 100000 nM. For the same compound, the GI50 (IGROV1) was 958 nM, the CC50 (IGROV1) was over 100000 nM and the GI50 (COLO 205) was 374 nM. It also gave a CC50 (COLO 205) of over 100000 nM, a GI50 (SK-OV-3) of 804 nM and a CC50 (SK-OV-3) of over 100000 nM. It also gave a GI50 (NCI/ADR-RES) of 283 nM, a CC50 (NCI/ADR-RES) of over 100000 nM and a GI50 (SF-268) of 476 nM. The CC50 (SF-268) was over 100000 nM, the GI50 [1, 2] was 94 to 983 nM and the GI50 [1, 3] was 490 nM. The “potent growth inhibition on % of the cancer cell lines” value [1] was 86%, the GI50 (RXF 393) was 334 nM and the CC50 (RXF 393) was over 100000 nM. For the same compound, the GI50 (PC-3) was 584 nM, the CC50 (PC-3) was over 100000 nM and the GI50 (OVCAR-3) was 309 nM. It also gave a CC50 (OVCAR-3) of 34000 nM, a GI50 (T-47D) of 1230 nM and a CC50 (T-47D) of over 100000 nM. The GI50 (NCI-H522) was 94 nM, the CC50 (NCI-H522) was over 100000 nM and the GI50 (HCC-2998) was 1420 nM. It also gave a CC50 (HCC-2998) of over 100000 nM, a CC50 (UACC-257) of over 100000 nM and a GI50 (CCRF-CEM) of 332 nM. It also gave a CC50 (CCRF-CEM) of over 100000 nM, a GI50 (MDA-MB-435) of 147 nM and a CC50 (MDA-MB-435) of over 100000 nM. The GI50 (MOLT-4) was 419 nM, the CC50 (MOLT-4) was over 100000 nM and the GI50 (DU-145) was 801 nM. It also gave a CC50 (DU-145) of over 100000 nM, a GI50 (SNB-19) of 728 nM and a CC50 (SNB-19) of over 100000 nM. The GI50 (NCI-H322M) was 3020 nM and the CC50 (NCI-H322M) was over 100000 nM.
